According to patent publication US5700480A, “Transdermal therapeutic system comprising galanthamine as active component” (priority 1993, dated 1997):

How the values were obtained:
[1] = penetration through excized rodent (mice) skin, Franz' diffusion cells; assay type: in vitro ADME; details: galanthamine, mice skin in vitro; addition of the acid as penetration enhancer
Experimental: 150 g 52.8% (w/w) active substance-containing adhesive solution result which is spread on an aluminized and siliconized polyethylene sheet by means of a 350 μm coating knife. After the solvents have been removed by drying for 30 min. up to 60° C., the adhesive film is covered with a polyester sheet (15 μm). An area of 16 cm^2 is punched by means of a suitable cutting tool and the edges are separated off. The release relating to both this and the other examples is listed in the table; the list indicates both the controlled release into a physiological saline and through excized rodent skin.
The in-vitro-release was determined in a shaking water bath at 37° C. The acceptor medium was 100 ml physiological saline which was completely changed after 2, 4 and 8 hours. The concentration was determined by HPLC after 2, 4, and 8 and 24 hours. The penetration through mice skin was measured by means of Franz' diffusion cells.

cholinesterase = details: cited from earlier work
[2] = vs physostigmine or neostigmine; cited from earlier work

Compound	penetration rate increase by addition of acid [1]	also measured
CCCCCCCC(=O)O [octanoic acid]	1.5 factor	–
C=CCCCCCCCCC(=O)O [undecenoic acid]	1.5 factor	–
COc1ccc2c3c1OC1CC(O)C=CC31CCN(C)C2 (centres unmarked) [galanthamine, 4a,5,9,10,11,12-hexahydro-3-methoxy-11-methyl-6H-benzofuro (3a,3,2-ef) (2) benzazepin-6-ol]	–	cholinesterase inhibition (in words) (cholinesterase; pharmacological properties): reversibly acting cholinesterase inhibitors; cholinesterase inhibiting-action, relative to the dosage (cholinesterase; vs physostigmine or neostigmine): slightly lower; therapeutic range [2]: three to six times broader; toxicity (in words) [2]: not as toxic as physostigmine or neostigmine
CCCCCCCC/C=C\CCCCCCCC(=O)O [oleic acid]	1.5 factor	–
CC(C)CCCCCCCCCCCCCCC(=O)O [isostearic acid]	1.5 factor	–
